According to article PMC5908784, “Extracellular loops 2 and 3 of the calcitonin receptor selectively modify agonist binding and efficacy” (Biochemical Pharmacology, 2018):
Changes are numbered by the printed parent chain. Where two headings read alike, the source gives them in different places. Where a SMILES comes first, the peptide text is derived from it. Bridges are numbered along the chain shown (N, C = ends).

Legend:
Assay in all cases: cAMP accumulation
Assay type in all cases: cell-based
hCTR R362A = target: T1, hCTR R362A (Homo sapiens, UniProt P30988, R362A); conditions: for Emax: SEM, read-out: Emax (% WT); for EC50: cAMP, CV1-FlpIn cells, 30 min, IBMX
T1 construct: expressed in transfected cells
T1 sequence (P30988 25-474 R362A): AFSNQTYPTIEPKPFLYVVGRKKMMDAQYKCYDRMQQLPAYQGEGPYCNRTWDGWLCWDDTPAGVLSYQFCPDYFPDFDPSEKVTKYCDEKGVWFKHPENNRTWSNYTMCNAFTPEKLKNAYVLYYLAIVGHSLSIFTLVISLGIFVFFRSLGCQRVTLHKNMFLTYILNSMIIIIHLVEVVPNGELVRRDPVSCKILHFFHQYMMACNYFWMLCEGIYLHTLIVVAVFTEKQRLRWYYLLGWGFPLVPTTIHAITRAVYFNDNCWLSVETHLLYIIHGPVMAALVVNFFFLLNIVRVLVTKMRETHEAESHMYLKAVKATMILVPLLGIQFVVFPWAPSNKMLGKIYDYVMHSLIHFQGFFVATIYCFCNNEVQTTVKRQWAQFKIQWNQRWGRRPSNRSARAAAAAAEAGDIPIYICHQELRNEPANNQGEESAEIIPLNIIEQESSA
Outline: (§1)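 Plated cells were incubated overnight and then challenged with rising ligand concentrations for 30 min alongside IBMX. Medium was replaced by absolute ethanol, which was evaporated at room temperature before cAMP determination. Values are normalized to 100 μM forskolin.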

hCTR V357A = target: T2, hCTR V357A (Homo sapiens, UniProt P30988, V357A); conditions: mean ± S.E.M.; for Emax: cAMP maximal response, SEM; for EC50: cAMP, CV1-FlpIn cells, 30 min, IBMX
T2 construct: c-Myc (N); expressed in transfected cells
T2 sequence (P30988 25-474 V357A): T1 sequence (P30988 25-474 R362A) with V333A, A338R
Outline: as §1

hCTR I279A = target: T3, hCTR I279A (Homo sapiens, UniProt P30988, I279A); conditions: mean ± S.E.M.; for Emax: cAMP maximal response, SEM; for EC50: cAMP, CV1-FlpIn cells, 30 min, IBMX
T3 construct: expressed in transfected cells
T3 sequence (P30988 25-474 I279A): T1 sequence (P30988 25-474 R362A) with I255A, A338R
Outline: as §1

hCTR W290A = target: T4, hCTR W290A (Homo sapiens, UniProt P30988, W290A); conditions: mean ± S.E.M.; for Emax: cAMP maximal response, SEM
T4 construct: c-Myc (N); expressed in transfected cells
T4 sequence (P30988 25-474 W290A): T1 sequence (P30988 25-474 R362A) with W266A, A338R
Outline: as §1

hCTR D287A = target: T5, hCTR D287A (Homo sapiens, UniProt P30988, D287A); conditions: mean ± S.E.M.; for Emax: cAMP maximal response, SEM
T5 construct: c-Myc (N); expressed in transfected cells
T5 sequence (P30988 25-474 D287A): T1 sequence (P30988 25-474 R362A) with D263A, A338R
Outline: as §1

[1] = R362A, cAMP maximal response, mean ± S.E.M.
[2] = cAMP, CV1-FlpIn cells, 30 min, IBMX

Row | Compound | Emax (hCTR R362A; [1]) | EC50 (hCTR R362A; R362A, mean ± S.E.M.) | Emax (hCTR V357A) | EC50 (hCTR V357A) | Emax (hCTR I279A) | EC50 (hCTR I279A) | Emax (hCTR R362A) | Emax (hCTR W290A) | Emax (hCTR D287A) | EC50 (hCTR W290A; [2]) | EC50 (hCTR D287A; [2])
1 | CC(C)C[C@H](NC(=O)CNC(=O)[C@H](C)NC(=O)[C@H](CC(C)C)NC(=O)[C@H](CCCNC(=N)N)NC(=O)[C@H](Cc1cnc[nH]1)NC(=O)[C@@H](NC(=O)[C@@H](NC(=O)[C@@H]1CSSC[C@H](NC(=O)[C@H](C)N)C(=O)N[C@@H](CC(=O)O)C(=O)N[C@@H]([C@@H](C)O)C(=O)N[C@@H](C)C(=O)N[C@@H]([C@@H](C)O)C(=O)N1)C(C)C)[C@@H](C)O)C(=O)N[C@@H](CC(C)C)C(=O)N[C@@H](CO)C(=O)N[C@@H](CCCNC(=N)N)C(=O)N[C@@H](CO)C(=O)NCC(=O)NCC(=O)N[C@H](C(=O)N[C@H](C(=O)N[C@@H](CCCCN)C(=O)N[C@@H](CC(N)=O)C(=O)N[C@@H](CC(N)=O)C(=O)N[C@@H](Cc1ccccc1)C(=O)N[C@H](C(=O)N1CCC[C@H]1C(=O)N[C@H](C(=O)N[C@@H](CC(N)=O)C(=O)N[C@H](C(=O)NCC(=O)N[C@@H](CO)C(=O)N[C@@H](CCCCN)C(=O)N[C@@H](C)C(=O)N[C@@H](Cc1ccccc1)C(N)=O)C(C)C)[C@@H](C)O)C(C)C)C(C)C)C(C)C [hαCGRP] | 51 ± 9% | 17.8 nM | 82 ± 10% | 29.5 nM | 139 ± 18% | 3.39 nM |  |  |  |  | 
2 | CC[C@H](C)[C@H](NC(=O)[C@H](C)NC(=O)[C@@H](NC(=O)[C@H](CCC(N)=O)NC(=O)[C@@H]1CCCN1C(=O)[C@H](Cc1ccccc1)NC(=O)[C@@H](NC(=O)[C@H](Cc1c[nH]cn1)NC(=O)[C@H](Cc1ccccc1)NC(=O)[C@H](CCCCN)NC(=O)[C@H](CC(N)=O)NC(=O)[C@H](Cc1ccccc1)NC(=O)[C@H](CC(=O)O)NC(=O)[C@H](CCC(N)=O)NC(=O)[C@@H](NC(=O)[C@H](Cc1ccc(O)cc1)NC(=O)[C@@H](NC(=O)CNC(=O)[C@H](CC(C)C)NC(=O)[C@H](CCSC)NC(=O)[C@@H]1CSSC[C@H](N)C(=O)NCC(=O)N[C@@H](CC(N)=O)C(=O)N[C@@H](CC(C)C)C(=O)N[C@@H](CO)C(=O)N[C@@H]([C@@H](C)O)C(=O)N1)[C@@H](C)O)[C@@H](C)O)[C@@H](C)O)[C@@H](C)O)C(=O)NCC(=O)N[C@H](C(=O)NCC(=O)N[C@@H](C)C(=O)N1CCC[C@H]1C(N)=O)C(C)C [hCT] |  |  | 137 ± 6% |  | 91 ± 4% |  | 125 ± 9% | 164 ± 20% | 140 ± 18% |  | 
3 | CC(C)C[C@H](NC(=O)[C@H](CC(N)=O)NC(=O)[C@H](CC(N)=O)NC(=O)[C@H](CO)NC(=O)[C@H](CO)NC(=O)[C@H](CCCNC(=N)N)NC(=O)[C@@H](NC(=O)[C@H](CC(C)C)NC(=O)[C@H](Cc1ccccc1)NC(=O)[C@H](CC(N)=O)NC(=O)[C@H](C)NC(=O)[C@H](CC(C)C)NC(=O)[C@H](CCCNC(=N)N)NC(=O)[C@H](CCC(N)=O)NC(=O)[C@@H](NC(=O)[C@H](C)NC(=O)[C@@H]1CSSC[C@H](NC(=O)[C@@H](N)CCCCN)C(=O)N[C@@H](CC(N)=O)C(=O)N[C@@H]([C@@H](C)O)C(=O)N[C@@H](C)C(=O)N[C@@H]([C@@H](C)O)C(=O)N1)[C@@H](C)O)C(C)C)C(=O)NCC(=O)N1CCC[C@H]1C(=O)N[C@H](C(=O)N[C@@H](CC(C)C)C(=O)N1CCC[C@H]1C(=O)N1CCC[C@H]1C(=O)N[C@H](C(=O)N[C@@H](CC(N)=O)C(=O)N[C@H](C(=O)NCC(=O)N[C@@H](CO)C(=O)N[C@@H](CC(N)=O)C(=O)N[C@H](C(=O)N[C@@H](Cc1ccc(O)cc1)C(N)=O)[C@@H](C)O)C(C)C)[C@@H](C)O)C(C)C [rAmy] |  |  | 88 ± 10% |  | 81 ± 9% |  | 88 ± 12% | 72 ± 26% |  |  | 
4 | CSCC[C@H](NC(=O)CNC(=O)[C@H](CO)NC(=O)[C@H](Cc1ccccc1)NC(=O)[C@H](CCCNC(=N)N)NC(=O)[C@H](Cc1c[nH]cn1)NC(=O)[C@H](Cc1ccccc1)NC(=O)[C@H](CC(N)=O)NC(=O)[C@H](CC(N)=O)NC(=O)[C@H](CC(C)C)NC(=O)[C@H](CC(N)=O)NC(=O)[C@H](CCCNC(=N)N)NC(=O)[C@H](Cc1c[nH]c2ccccc12)NC(=O)[C@H](Cc1ccc(O)cc1)NC(=O)[C@H](C)NC(=O)[C@H](CO)NC(=O)[C@H](CC(C)C)NC(=O)[C@@H](NC(=O)[C@@H]1CSSC[C@H](N)C(=O)N[C@@H](CO)C(=O)N[C@@H](CC(N)=O)C(=O)N[C@@H](CC(C)C)C(=O)N[C@@H](CO)C(=O)N[C@@H]([C@@H](C)O)C(=O)N1)C(C)C)C(=O)NCC(=O)N[C@@H](Cc1ccccc1)C(=O)NCC(=O)N1CCC[C@H]1C(=O)N[C@@H](CCC(=O)O)C(=O)N[C@H](C(=O)N1CCC[C@H]1C(N)=O)[C@@H](C)O [pCT] (H-CSNLSTCVLSAYWRNLNNFHRFSGMGFGPETP-NH2; disulfide 1-7) | 138 ± 9% | 0.182 nM | 154 ± 17% | 0.151 nM | 97 ± 4% | 0.0398 nM |  | 113 ± 12% | 74 ± 9% | 3.31 nM | 1.91 nM
5 | CC(C)C[C@H](NC(=O)[C@H](CCCCN)NC(=O)CNC(=O)[C@H](CC(C)C)NC(=O)[C@@H](NC(=O)[C@@H]1CSSC[C@H](N)C(=O)N[C@@H](CO)C(=O)N[C@@H](CC(N)=O)C(=O)N[C@@H](CC(C)C)C(=O)N[C@@H](CO)C(=O)N[C@@H]([C@@H](C)O)C(=O)N1)C(C)C)C(=O)N[C@@H](CO)C(=O)N[C@@H](CCC(N)=O)C(=O)N[C@@H](CCC(=O)O)C(=O)N[C@@H](CC(C)C)C(=O)N[C@@H](Cc1c[nH]cn1)C(=O)N[C@@H](CCCCN)C(=O)N[C@@H](CC(C)C)C(=O)N[C@@H](CCC(N)=O)C(=O)N[C@H](C(=O)N[C@@H](Cc1ccc(O)cc1)C(=O)N1CCC[C@H]1C(=O)N[C@@H](CCCNC(=N)N)C(=O)N[C@H](C(=O)N[C@@H](CC(N)=O)C(=O)N[C@H](C(=O)NCC(=O)N[C@@H](CO)C(=O)NCC(=O)N[C@H](C(=O)N1CCC[C@H]1C(N)=O)[C@@H](C)O)[C@@H](C)O)[C@@H](C)O)[C@@H](C)O [sCT] |  |  | 133 ± 12% |  | 90 ± 6% |  | 95 ± 4% | 154 ± 7% | 119 ± 7% |  | 
